target: Chymotrypsinogen B (Homo sapiens, UniProt P17538); test: Competitive inhibition of alpha-chymotrypsin
Sequence (P17538 34-164 limits assumed, other chains not shown): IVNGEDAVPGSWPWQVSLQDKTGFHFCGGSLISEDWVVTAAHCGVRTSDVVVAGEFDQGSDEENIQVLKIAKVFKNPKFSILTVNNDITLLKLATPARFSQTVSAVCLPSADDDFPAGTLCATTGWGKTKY
Sequence (P17538 167-263 limits assumed, other chains not shown): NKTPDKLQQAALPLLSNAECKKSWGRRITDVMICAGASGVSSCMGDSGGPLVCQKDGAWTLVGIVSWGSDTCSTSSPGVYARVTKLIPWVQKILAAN

| Compound | Ki |
| --- | --- |
| O=C(NC(Cc1ccccc1)B(O)O)c1ccccc1 (stereo not given) | 650 nM |
| CC(NC(=O)OCc1ccccc1)C(=O)NC(B(F)F)c1ccccc1 (stereo not given) | 2000 nM |
| CC(=O)NC(Cc1ccccc1)B(F)F (stereo not given) | 7400 nM |
| O=C(N[C@@H](Cc1ccccc1)B(F)F)c1ccccc1 | 270 nM |
| CC(=O)N[C@@H](Cc1ccccc1)B(F)F | 1700 nM |
| O=C(N[C@@H](Cc1ccccc1)B(O)O)c1ccccc1 | 360 nM |

More lines, now with the values ahead:

| Ki | Compound |
| --- | --- |
| 5000 nM | O=C(NC(B(F)F)c1ccccc1)c1ccccc1 (stereo not given) |
| 6500 nM | CC(=O)NC(Cc1ccccc1)B(O)O (stereo not given) |
| 650 nM | O=C(NC(Cc1ccccc1)B(F)F)c1ccccc1 (stereo not given) |
| 2100 nM | CC(=O)N[C@@H](Cc1ccccc1)B(O)O |

target: not listed separately; test: Competitive inhibition of porcine elastase by the compound was evaluated; design: species or system Sus scrofa

| Ki | Compound |
| --- | --- |
| 100 nM | CC[C@H](C)[C@H](NC(=O)C(C)NC(=O)OCc1ccccc1)B(F)F (stereo not given in full) |
| 34500 nM | CC(NC(=O)OCc1ccccc1)C(=O)N[C@@H](C)B(F)F (stereo not given in full) |
| 120 nM | CC[C@H](C)[C@H](NC(=O)C(C)NC(=O)OCc1ccccc1)B(O)O (stereo not given in full) |
| 1000 nM | CC(NC(=O)OCc1ccccc1)C(=O)N[C@H](B(F)F)C(C)C (stereo not given in full) |
| 1100 nM | CC(NC(=O)OCc1ccccc1)C(=O)N[C@H](B(O)O)C(C)C (stereo not given in full) |
